# Values of other authors as cited in article PMC12682947, “Identification of New KCNT1‐Epilepsy Drugs by In Silico, Cell, and Drosophila Modeling” (Annals of Neurology, 2025).
# Where a name gives a salt, the structure may show the parent alone.
# System: hERG potassium channels
# Settings: read-out: IC50 for inhibition of hERG potassium channels; cited from earlier work
compound,measurement,value
Cc1c(O)cccc1C(=O)N[C@@H](CSc1ccccc1)[C@H](O)CN1C[C@H]2CCCC[C@H]2C[C@H]1C(=O)NC(C)(C)C [nelfinavir mesylate],IC50,11.5 µM
